# Data as given in US8173133B2, “Acyl pseudodipeptides which carry a functionalized auxiliary arm” (OM Pharma, priority 1999, dated 2012).
# Several values for one entry are separate records, joined by “and”; a condition that tells them apart may be missing. Equal entries are not always repeated.
# Experiments:
# [1] = test system: murine predendritic cells (CD-DM); experiment: maturation of murine predendritic cells into dendritic cells (flow cytometry of surface markers); format: cell-based, C57BI/6 mice; details: for CD40 MFI: 48 hour
# Procedure: The marrow was aspirated from the femur and tibia bones of (C57BI/6, 6 to 8 week-old) mice. The marrow suspension was screened through a 70 μm cell sieve in order to obtain a single cell suspension. Marrow cells were resuspended into Isocove's modified Dulbecco medium (IMDM) supplemented with 10% of heat inactivated foetal calf serum (iFCS) and antibiotics. Cells were incubated overnight at 37° C., under CO2 and a moisture saturated atmosphere, inside 6-well microtiter plates. Next day (day 0), non adherent cells were collected and washed. Viable cells were counted by trypan blue dye exclusion test. Cell concentration was adjusted to 2×10^5 cells/ml in IMDM containing […] and 20 ng/ml of murine recombinant IL-4 (rmIL-4) and plates were further incubated. On the 3rd day, there were added freshly prepared mGM-CSF and rmIL-4 at a concentration of 10 ng/ml. On the 6th day, non adherent cells were collected, washed and counted by trypan blue dye exclusion. Cell concentration was adjusted to 2×10^5 cells/ml in IMDM containing 10 ng/ml of rmGM-CSF and rmIL-4, and plates were further incubated. On the 8th day, non adherent cells made up of both mature and immature dendritic cells (CD-DM) were collected and used in product co-incubation experiments.
# After a 48 hour incubation period, cells were collected and stored for flow cytometry analysis Flow cytometry analysis CD-DM were washed with PBS containing 2% iFCS and 0.01% sodium azide (FACS buffer). Then, cells were incubated on ice for 30 minutes with optimal concentrations of anti-CD86 antibody; anti-CD40 antibody, FITC conjugated anti-MCHII antibody, and […]. Then, cells were washed 3 times. Labeling of anti-CD86 and anti-CD40 antibodies was performed by incubating cells on ice for 30 minutes with peroxidase-conjugated donkey anti-rat immunoglobulins. Following incubation, cells were washed and resuspended into FACS medium. Fluorescence was measured with the aid of FACScan® flow cytometry. 15000 pulse events were analyzed per sample. Cells which had been incubated with the conjugate alone were used as a negative control.
# K562 cells = experiment: activation of NK cell cytotoxicity against K562 target cells (LDH release); format: cell-based, human
# Procedure: PBMC were recovered from buffy coats according to the procedure previously described in example 4.6. […] Cells were incubated under such conditions for 24 hours. K562 cells (human leukemia cell line, ATCC #CCL 243, 20110-2209 Manassas (Va.), U.S.A.) were maintained in culture using RPMI medium containing 10% FCS and subjected to 2 passages per week.
# In order to make cytotoxicity measurement, PBMC and K562 cells were washed twice in HBSS and resuspended in Phenol Red-free RPMI medium containing 5% FCS. PBMC were divided into a round bottom 96-well plate so as to achieve a PBMC/target ratio of 20/1, 10/1 and 5/1 in 50 μl volume. 5000 K562 cells (target) were added in each well using 50 μl of Phenol Red-free RPMI. Final volume was 100 μl. The plate was centrifuged to promote contact then incubated at 37° C. for 4 hours.
# Cytotoxicity was assayed using a non radioactive CytoTox 96 kit based on measuring LDH release during cell lysis (kit #G1780, batch #124100, Promega, Madison, Wis.) according to the supplier's instructions.
# The percentage of cytotoxicity was calculated according to the following equation: […]
# Leishmania LmCPb antigen = experiment: Leishmania LmCPb immunization: IL-4 and γ IFN in lymph node cell supernatant (ELISA); format: in vivo, CBA mice; details: lymph node cell cultures challenged with the parasite antigen
# Procedure: CBA mice were administered through the tail a single subcutaneous injection (100 μl) of Leishmania parasite LmCPb antigen (3 μg per mouse)±adjuvant. […] Eleven days after injection, inguinal and periaortic lymph node cells (2 groups of 3 mice each) were cultured in triplicate in presence of purified LmCPb antigen or whole extract of the parasite (amastigote). At day 4, a supernatant sample is withdrawn and stored at −20° C. for IL-4 and γ IFN assay. Finally, tritiated thymidine (^3H-TdR) is added to the cultures to measure the proliferation reaction.
# Cytokine assay is carried out by a sandwich ELISA assay (OptEIA®) kits for γ IFN and IL-4, BD, PharMingen, Basel, Switzerland) and the proliferation response is determined by measuring thymidine take-up (^3H-TdR). ^3H-TdR take-up given in cpm as the arithmetic mean value±standard deviation ([…] of 3 mice each) and IL-4 concentration given in pg/ml are individually reported for each pool of 3 mice as the arithmetic mean of two measurements (cytokine assay).
# An LmCPb stock solution is prepared at a concentration of 150 μg/ml in PBS
# Adjuvants: The stock solution of OM-294-MP-AC is prepared at a concentration of 0.9 mg/ml in water for injection, with addition of 0.1% triethanolamine.
# Antigen-adjuvant mixture: Adjuvant preparation (4 volumes), which had been adjusted to an adequate final concentration in sterile PBS, is mixed just prior to injection with the antigen stock solution (1 volume).
# [2] = pyrogenicity in the rabbit model; format: in vivo, New Zealand white rabbits; details: for response in ° C. average (individual values): 3 rabbits
# Procedure: 15 New Zealand white rabbits are divided into the following groups: • Group 1: 1.0 mg/kg • Group 2: 0.1 mg/kg • Group 3: 0.01 mg/kg • Group 4: 0.001 mg/kg • Group 5: water for injection
# On the day of testing, rabbits are tightly held and weighed in boxes designed for this purpose. Temperature probes are inserted in the rectum are
# 1 hour after probe insertion, temperatures (preinjection) are recorded for 90 minutes and the mean value is calculated.
# Each rabbit is then administered an i.v. injection of product or control (sterile water in 0.9% NaCl) via the marginal (lateral) ear vein. Temperature is measured at 30 minute intervals for 3 hours. Difference between the preinjection average temperature and maximum temperature is calculated and reported.
# If the result obtained lies in-between, the test is repeated with 3 more rabbits.
SMILES,C80 % cells ([1]; 0.1 μg/ml),C80 MFI ([1]; 0.1 μg/ml),CD40 % cells ([1]; 0.1 μg/ml),CD86 % cells ([1]; 0.1 μg/ml),CD86 MFI ([1]; 0.1 μg/ml),MHCII % cells ([1]; 0.1 μg/ml),MHCII MFI ([1]; 0.1 μg/ml),CD40 MFI ([1]; 0.1 μg/ml),C80 % cells ([1]; 1 μg/ml),C80 MFI ([1]; 1 μg/ml),CD40 % cells ([1]; 1 μg/ml),CD86 % cells ([1]; 1 μg/ml),CD86 MFI ([1]; 1 μg/ml),MHCII % cells ([1]; 1 μg/ml),MHCII MFI ([1]; 1 μg/ml),CD40 MFI ([1]; 1 μg/ml),C80 % cells ([1]; 10 μg/ml),C80 MFI ([1]; 10 μg/ml),CD40 % cells ([1]; 10 μg/ml),CD86 % cells ([1]; 10 μg/ml),also measured
"CCCCCCCCCCCC(=O)O[C@H](CCCCCCCCCCC)CC(=O)N[C@H](CC(=O)O)C(=O)NCCC[C@H](COC(=O)CCCCC(O)CO)NC(=O)C[C@H](O)CCCCCCCCCCC (stereo partly drawn) [OM-197-MC-FV5, N—[(R)-3-dodecanoyloxytetradecanoylamino]-D-aspartic acid, α-N-{(4R)-5-hydroxy-4-[(R)-3-hydroxytetra-decanoylamino]-pentyl}amide 5-O-(6,7-dihydroxyheptanoate)]",42%,66,33%,37%,3437,40%,1689,442,45%,84,44%,43%,3888,43%,1691,517,48%,97,54%,51%,CD86 MFI ([1]; 10 μg/ml): 4097; MHCII % cells ([1]; 10 μg/ml): 48%; MHCII MFI ([1]; 10 μg/ml): 1681; CD40 MFI ([1]; 10 μg/ml): 630
"CCCCCCCCCCCC(=O)O[C@H](CCCCCCCCCCC)CC(=O)NC(CCOP(=O)(O)O)C(=O)NCCCC(COC(=O)CCCCC(O)CO)NC(=O)C[C@H](O)CCCCCCCCCCC (stereo partly drawn) [OM-197-FV6, 3-[(R)-dodecanoyloxytetradecanoylamino]-4oxo-5-aza-9-[(R)-3-hydroxytetradecanoylamino]-decan-1,10-diol 1-dihydrogenphate 10-(6,7-dihydroxyheptanoate)]",,,,,,,,,,,,,,,,,,,,,"NK activity level (K562 cells; 1 μg/ml): comparable or slightly inferior to that induced by LPS; % cytotoxicity (K562 cells; Ratio PBMC:K562 5.1): 0%; Optical density at 490 nm, K562 + PBMC (K562 cells; Ratio PBMC:K562 5.1): 1.4; Optical density at 490 nm, PBMC alone (K562 cells; Ratio PBMC:K562 5.1): 0.079; % cytotoxicity (K562 cells; Ratio PBMC:K562 10.1): 12.9%; Optical density at 490 nm, K562 + PBMC (K562 cells; Ratio PBMC:K562 10.1): 1.65; Optical density at 490 nm, PBMC alone (K562 cells; Ratio PBMC:K562 10.1): 0.087; % cytotoxicity (K562 cells; Ratio PBMC:K562 20.1): 38.8%; Optical density at 490 nm, K562 + PBMC (K562 cells; Ratio PBMC:K562 20.1): 2.1; Optical density at 490 nm, PBMC alone (K562 cells; Ratio PBMC:K562 20.1, stimulus 24 hours): 0.11"
"CCCCCCCCCCCC(=O)O[C@H](CCCCCCCCCCC)CC(=O)N[C@H](CC(=O)O)C(=O)NCCC[C@H](COC(=O)CCCCCN)NC(=O)C[C@H](O)CCCCCCCCCCC [OM-197-MC-AC, N—[(R)-3-dodecanoyloxytetradecanoyl]-D-aspartic acid, α-N-{(4R)-5-(6-aminohexanoyloxy)-4-[(R)-3-hydroxytetradecanoylamino]pentyl}amide]",41%,66,34%,37%,3504,38%,1597,446,47%,73,48%,45%,3791,45%,1607,493,53%,97,55%,52%,CD86 MFI ([1]; 10 μg/ml): 4162; MHCII % cells ([1]; 10 μg/ml): 49%; MHCII MFI ([1]; 10 μg/ml): 1622; CD40 MFI ([1]; 10 μg/ml): 605; γ IFN production (Leishmania LmCPb antigen): < 100 pg/mL
"CCCCCCCCCCCC(=O)O[C@H](CCCCCCCCCCC)CC(=O)N[C@H](CC(=O)O)C(=O)NCCC[C@H](COP(=O)(O)O)NC(=O)C[C@H](O)CCCCCCCCCCC [OM-197-MC-MP, N—[(R)-3-dodecanoyloxytetradecanoyl]-D-aspartic acid, α-N-{(4R)-5-dihydroxyphosphoryloxy-4-[(R)-3-hydroxytetradecanoyl-amino]pentyl}amide]",,,,,,,,,,,,,,,,,,,,,"pyrogenicity Results ([2]; 0.001 mg/Kg i.v.): non pyrogenic; response in ° C. average (individual values) ([2]; 0.001 mg/Kg i.v.): 0.35 (0.10, 0.05, 0.20) ° C. and 0.25 (0.00, 0.10, 0.15) ° C.; pyrogenicity Results ([2]; 0.01 mg/Kg i.v.): non pyrogenic; response in ° C. average (individual values) ([2]; 0.01 mg/Kg i.v.): 0.65 (0.00, 0.45, 0.20) ° C. and 0.35 (0.20, 0.15, 0.00) ° C.; pyrogenicity Results ([2]; 0.1 mg/Kg i.v.): pyrogenic; response in ° C. average (individual values) ([2]; 0.1 mg/Kg i.v.): 2.00 (1.45, 0.05, 0.50) ° C. and 2.85 (1.10, 1.20, 0.55) ° C.; pyrogenicity Results ([2]; 1 mg/Kg i.v.): pyrogenic; response in ° C. average (individual values) ([2]; 1 mg/Kg i.v.): 3.40 (1.50, 0.60, 1.30) ° C. and 3.25 (1.25, 1.45, 0.55) ° C."
